Values of other authors in US20220088278A1, “Covered Stent For Local Drug Delivery” (BIOTRONIK AG, priority 2019, published 2022).

Tested on: main bile duct of pancreatic cancer patients
Settings: thirty-six pancreatic cancer patients

## CC(=O)O[C@H]1C(=O)[C@@]2(C)[C@H]([C@H](OC(=O)c3ccccc3)[C@]3(O)C[C@H](OC(=O)[C@H](O)[C@@H](NC(=O)c4ccccc4)c4ccccc4)C(C)=C1C3(C)C)[C@]1(OC(C)=O)CO[C@@H]1C[C@@H]2O [paclitaxel]
  duct patency duration versus covered stent without drug: did not significantly differ
